Data published in the supplement of paper PMC10307832.

Key:
Experiment in all cases: relative viability (nuclei count vs DMSO), 5 days (fraction); higher = more cells survive
AZD6482 + Decitabine = compound: Cc1cc([C@@H](C)Nc2ccccc2C(=O)O)c2nc(N3CCOCC3)cc(=O)n2c1 [AZD6482] + Nc1ncn([C@H]2C[C@H](O)[C@@H](CO)O2)c(=O)n1 [Decitabine] (partner 2 µM)
Method in brief: (§1)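 Lung cancer cell lines were seeded in 1536-well plates and dosed by pin tool the next day, with either a single drug or a fixed anchor-drug dose combined with five library-drug doses (not always all listed) spaced in √10 steps. Five days later, one step fixed the cells and stained their nuclei (final 0.05% Triton X-100, 1% formaldehyde, 1 ug/ml Hoechst), and nuclei were counted on 4× images. Relative viability is the nuclei count in treated wells divided by the count in vehicle wells, and each value is the median of duplicate plates.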

AZD6482 + Crizotinib = compound: Cc1cc([C@@H](C)Nc2ccccc2C(=O)O)c2nc(N3CCOCC3)cc(=O)n2c1 [AZD6482] + C[C@@H](Oc1cc(-c2cnn(C3CCNCC3)c2)cnc1N)c1c(Cl)ccc(F)c1Cl [Crizotinib] (partner 1 µM)
Method in brief: as §1

[1] = compound: COc1cc2nc(N3CCCN(C)CC3)nc(NC3CCN(Cc4ccccc4)CC3)c2cc1OC + CC(=O)c1c(C)c2cnc(Nc3ccc(N4CCNCC4)cn3)nc2n(C2CCCC2)c1=O [Palbociclib] (partner 0.5 µM)
Method in brief: as §1

[2] = compound: COc1cc2nc(N3CCCN(C)CC3)nc(NC3CCN(Cc4ccccc4)CC3)c2cc1OC + NC(=O)Nc1cc(-c2cccc(F)c2)sc1C(=O)N[C@H]1CCCNC1 [AZD7762] (partner 0.2 µM)
Method in brief: as §1

Cell Line	relative viability (AZD6482 + Decitabine; first compound 0.08 µM)	relative viability (AZD6482 + Decitabine; first compound 0.253 µM)	relative viability (AZD6482 + Decitabine; first compound 0.8 µM)	relative viability (AZD6482 + Decitabine; first compound 2.53 µM)	relative viability (AZD6482 + Decitabine; first compound 8 µM)	relative viability (AZD6482 + Crizotinib; first compound 0.08 µM)	relative viability (AZD6482 + Crizotinib; first compound 0.253 µM)	relative viability (AZD6482 + Crizotinib; first compound 0.8 µM)	relative viability (AZD6482 + Crizotinib; first compound 2.53 µM)	relative viability (AZD6482 + Crizotinib; first compound 8 µM)	relative viability ([1]; first compound 0.2 µM)	relative viability ([1]; first compound 0.6325 µM)	relative viability ([1]; first compound 2 µM)	relative viability ([1]; first compound 6.325 µM)	relative viability ([2]; first compound 0.2 µM)	relative viability ([2]; first compound 0.6325 µM)	relative viability ([2]; first compound 2 µM)	relative viability ([2]; first compound 6.325 µM)
NCI-H2126	0.56	0.565	0.49	0.494	0.465	0.954	0.987	1.01	0.787	0.777	0.373	0.325	0.367	0.328	1.04	1.02	1.04	0.982
LXF-289	0.356	0.422	0.36	0.356	0.369	0.813	0.837	0.898	0.794	0.736	0.583	0.603	0.615	0.586	1.04	1.05	1.12	1.11
NCI-H2405	0.641	0.666	0.732	0.447	0.541	0.577	0.772	0.893	0.587	0.546	0.554	0.493	0.522	0.514	0.671	0.792	0.829	0.973
NCI-H1755	0.709	0.733	0.749	0.668	0.6	0.717	0.769	0.704	0.545	0.487	0.446	0.452	0.393	0.399	0.501	0.386	0.461	0.477
HCC-78	0.555	0.462	0.646	0.474	0.442	0.295	0.322	0.245	0.227	0.235	0.491	0.448	0.508	0.463	0.588	0.675	0.67	0.717
LOU-NH91	0.753	0.828	0.788	0.661	0.7	0.709	0.725	0.74	0.564	0.563	0.464	0.424	0.588	0.552	0.727	0.85	0.759	0.793
NCI-H3122	0.474	0.393	0.389	0.277	0.298	0.243	0.285	0.27	0.212	0.25	0.207	0.21	0.216	0.209	1.1	0.918	1.02	0.983
HCC-827	0.341	0.301	0.342	0.267	0.264	0.894	0.958	0.936	0.885	0.63	0.478	0.448	0.437	0.446	0.199	0.213	0.15	0.238
NCI-H1975	0.351	0.392	0.385	0.354	0.345	0.841	0.908	1.03	0.737	0.764	0.567	0.603	0.826	0.586	0.78	0.813	0.805	0.775
NCI-H1651	0.627	0.429	0.572	0.446	0.482	0.816	0.857	0.874	0.835	0.729	0.518	0.5	0.515	0.522	0.446	0.373	0.452	0.502
NCI-H441	0.254	0.198	0.295	–	0.214	0.651	0.689	0.782	0.443	0.507	0.191	0.219	0.236	0.207	1.09	1.12	0.973	1.12
LCLC-103H	0.597	0.682	0.677	0.716	0.519	0.909	0.994	0.911	0.847	0.699	0.479	0.47	0.452	0.444	0.814	0.719	0.903	0.832
LCLC-97TM1	0.218	0.204	0.196	–	0.213	0.479	0.327	0.298	0.294	0.234	0.219	0.231	0.254	0.238	0.335	0.269	0.297	0.277
NCI-H727	0.951	0.85	1.02	–	0.798	0.684	0.971	0.864	–	0.824	0.617	0.656	0.571	0.632	0.646	0.449	0.578	0.668
NCI-H1355	0.346	0.362	0.363	0.341	0.35	0.777	0.959	1.07	0.797	0.726	0.404	0.379	0.423	0.386	0.738	0.693	0.941	0.661
HOP-62	0.197	0.239	0.229	0.265	0.209	1.07	0.897	0.609	0.782	0.751	0.436	0.386	0.506	0.491	0.485	0.425	0.726	0.521
NCI-H2085	0.485	0.456	0.471	0.357	0.403	0.818	0.537	0.519	0.316	0.358	0.455	0.484	0.5	0.458	0.992	0.992	1.09	0.947
